Results from ChEMBL document CHEMBL5661943, “ASAP - In vitro antiviral effect” (2024).
pEC50: −log10 of the molar value.

What was measured:
dengue virus type 2 = experiment: Functional immunofluorescence assay to measure dose dependent changes in antiviral-drug inhibitory efficacy against Dengue virus type 2 Thailand/16681/84 in Vero E6/TMPRSS2 cells (cotreated with P-gp inhibitor, Elacridar). Cells are treated with antiviral candidates that are serially diluted, following infection, cells are fixed. EC50 is reported via analysis of immunofluorescence staining. The assay has been performed by Icahn School of Medicine at Mount Sinai.; assay type: organism-based, Chlorocebus sabaeus, VeroE6/TMPRSS2
Zika virus = experiment: EC50 is reported via analysis of immunofluorescence staining. The assay has been performed by Icahn School of Medicine at Mount Sinai.; assay type: functional, organism-based, Chlorocebus sabaeus, VeroE6/TMPRSS2

N#Cc1cc(Cl)cc(C(=O)Nc2ccc3c(c2)CNC3)c1
pEC50 (dengue virus type 2; Dengue virus, VeroE6/TMPRSS2): < 4.30 | EC90 (dengue virus type 2; Dengue virus, VeroE6/TMPRSS2, Maximum measured 57.395 %, Minimum measured 32.413 %, P-gp concentration 2 uM, P-gp inhibitor Elacidar): > 50 µM | pEC50 (Zika virus; Zika virus, VeroE6/TMPRSS2): 4.33 | EC90 (Zika virus; Zika virus, VeroE6/TMPRSS2, Baseline response 0 %, Hill slope -12.375, Maximum measured 129.405 %, Maximum response 100 %, Minimum measured 33.162 %, P-gp concentration 2 uM, R squared 0.602, P-gp inhibitor Elacidar): > 50 µM

Cc1ccc(S(=O)(=O)CNC(=O)[C@H](Nc2ccc3c(c2)CNC3)c2cc(Cl)cc3[nH]ncc23)cc1
pEC50 (dengue virus type 2; Dengue virus, VeroE6/TMPRSS2): < 4.30 | EC90 (dengue virus type 2; Dengue virus, VeroE6/TMPRSS2, Baseline response 0 %, Hill slope 0.271, Maximum measured 147.697 %, Maximum response 100 %, Minimum measured 56.785 %, P-gp concentration 2 uM, R squared 0.117, P-gp inhibitor Elacidar): > 50 µM | pEC50 (Zika virus; Zika virus, VeroE6/TMPRSS2): < 5.26 | EC90 (Zika virus; Zika virus, VeroE6/TMPRSS2, Baseline response 0 %, Hill slope -0.504, Maximum measured 105.322 %, Maximum response 100 %, Minimum measured 58.532 %, P-gp concentration 2 uM, R squared 0.723, P-gp inhibitor Elacidar): > 5.56 µM

O=C(Nc1ccc2c(c1)CNC2)c1cc(Cl)ccc1SC1CCCC1
pEC50 (dengue virus type 2; Dengue virus, VeroE6/TMPRSS2): < 4.78 | EC90 (dengue virus type 2; Dengue virus, VeroE6/TMPRSS2, Maximum measured 58.655 %, Minimum measured 40.644 %, P-gp concentration 2 uM, P-gp inhibitor Elacidar): > 16.7 µM | pEC50 (Zika virus; Zika virus, VeroE6/TMPRSS2): < 4.78 | EC90 (Zika virus; Zika virus, VeroE6/TMPRSS2, Maximum measured 121.888 %, Minimum measured 81.617 %, P-gp concentration 2 uM, P-gp inhibitor Elacidar): > 16.7 µM

N#Cc1cc(Cl)cc([C@H](C#N)Nc2ccc3c(c2)CNC3)c1
pEC50 (dengue virus type 2; Dengue virus, VeroE6/TMPRSS2): < 4.78 | EC90 (dengue virus type 2; Dengue virus, VeroE6/TMPRSS2, Maximum measured 121.447 %, Minimum measured 87.688 %, P-gp concentration 2 uM, P-gp inhibitor Elacidar): > 16.7 µM | pEC50 (Zika virus; Zika virus, VeroE6/TMPRSS2): < 4.30 | EC90 (Zika virus; Zika virus, VeroE6/TMPRSS2, Baseline response 0 %, Hill slope -0.289, Maximum measured 115.578 %, Maximum response 100 %, Minimum measured 78.039 %, P-gp concentration 2 uM, R squared 0.102, P-gp inhibitor Elacidar): > 50 µM

O=C(Nc1ccc2c(c1)CNC2)c1cc(Br)cc2[nH]c(C3CCOCC3)nc12
pEC50 (dengue virus type 2; Dengue virus, VeroE6/TMPRSS2): < 5.26 | EC90 (dengue virus type 2; Dengue virus, VeroE6/TMPRSS2, Maximum measured 89.147 %, Minimum measured 35.738 %, P-gp concentration 2 uM, P-gp inhibitor Elacidar): > 5.56 µM | pEC50 (Zika virus; Zika virus, VeroE6/TMPRSS2): < 5.26 | EC90 (Zika virus; Zika virus, VeroE6/TMPRSS2, Maximum measured 127.67 %, Minimum measured 33.686 %, P-gp concentration 2 uM, P-gp inhibitor Elacidar): > 5.56 µM

Cc1ccc2cc(Cl)cc(C(=O)Nc3ccc4c(c3)CNC4)c2n1
pEC50 (dengue virus type 2; Dengue virus, VeroE6/TMPRSS2): < 5.26 | EC90 (dengue virus type 2; Dengue virus, VeroE6/TMPRSS2, Maximum measured 235.971 %, Minimum measured 154.17 %, P-gp concentration 2 uM, P-gp inhibitor Elacidar): > 5.56 µM | pEC50 (Zika virus; Zika virus, VeroE6/TMPRSS2): < 4.78 | EC90 (Zika virus; Zika virus, VeroE6/TMPRSS2, Maximum measured 117.23 %, Minimum measured 34.966 %, P-gp concentration 2 uM, P-gp inhibitor Elacidar): > 16.7 µM

O=C(Nc1cnc2c(c1)CNCC2)c1cc(Cl)cc2[nH]ncc12
pEC50 (dengue virus type 2; Dengue virus, VeroE6/TMPRSS2): < 4.30 | EC90 (dengue virus type 2; Dengue virus, VeroE6/TMPRSS2, Maximum measured 104.893 %, Minimum measured 59 %, P-gp concentration 2 uM, P-gp inhibitor Elacidar): > 50 µM | pEC50 (Zika virus; Zika virus, VeroE6/TMPRSS2): 4.34 | EC90 (Zika virus; Zika virus, VeroE6/TMPRSS2, Baseline response 0 %, Hill slope -15.177, Maximum measured 54.077 %, Maximum response 44.083 %, Minimum measured 8.284 %, P-gp concentration 2 uM, R squared 0.548, P-gp inhibitor Elacidar): > 50 µM

O=C(NCC1CCOCC1)[C@H](Nc1ccc2c(c1)CNC2)c1cc(Cl)cc2[nH]ncc12
pEC50 (dengue virus type 2; Dengue virus, VeroE6/TMPRSS2): < 4.78 | EC90 (dengue virus type 2; Dengue virus, VeroE6/TMPRSS2, Maximum measured 245.258 %, Minimum measured 99.219 %, P-gp concentration 2 uM, P-gp inhibitor Elacidar): > 16.7 µM | pEC50 (Zika virus; Zika virus, VeroE6/TMPRSS2): < 4.78 | EC90 (Zika virus; Zika virus, VeroE6/TMPRSS2, Maximum measured 73.647 %, Minimum measured 25.821 %, P-gp concentration 2 uM, P-gp inhibitor Elacidar): > 16.7 µM

CCOC(=O)[C@H]1[C@H](c2cc(Cl)cc(NC(=O)OCc3ccccc3)c2)[C@H]1c1cccc(-c2nnn[nH]2)c1
pEC50 (dengue virus type 2; Dengue virus, VeroE6/TMPRSS2): 5.00 | EC90 (dengue virus type 2; Dengue virus, VeroE6/TMPRSS2, Baseline response 0 %, Hill slope -0.678, Maximum measured 159.228 %, Maximum response 100 %, Minimum measured 7.966 %, P-gp concentration 2 uM, R squared 0.513, P-gp inhibitor Elacidar): > 50 µM | pEC50 (Zika virus; Zika virus, VeroE6/TMPRSS2): 4.40 | EC90 (Zika virus; Zika virus, VeroE6/TMPRSS2, Baseline response 0 %, Hill slope -17.688, Maximum measured 145.242 %, Maximum response 100 %, Minimum measured 1.538 %, P-gp concentration 2 uM, R squared 0.641, P-gp inhibitor Elacidar): 44.8 µM

N#C[C@H](Nc1cccc(-c2nn[nH]n2)c1)c1cc(Cl)cc(NC(=O)OCc2ccccc2)c1
pEC50 (dengue virus type 2; Dengue virus, VeroE6/TMPRSS2): < 4.30 | EC90 (dengue virus type 2; Dengue virus, VeroE6/TMPRSS2, Baseline response 0 %, Hill slope -0.37, Maximum measured 135.235 %, Maximum response 100 %, Minimum measured 60.402 %, P-gp concentration 2 uM, R squared 0.119, P-gp inhibitor Elacidar): > 50 µM | pEC50 (Zika virus; Zika virus, VeroE6/TMPRSS2): < 4.30 | EC90 (Zika virus; Zika virus, VeroE6/TMPRSS2, Maximum measured 138.49 %, Minimum measured 54.48 %, P-gp concentration 2 uM, P-gp inhibitor Elacidar): > 50 µM

O=S(=O)(Nc1cccc(-c2nnn[nH]2)c1)c1cc(Cl)cc(-c2ccccc2)c1
pEC50 (dengue virus type 2; Dengue virus, VeroE6/TMPRSS2): 6.21 | EC90 (dengue virus type 2; Dengue virus, VeroE6/TMPRSS2, Baseline response 0 %, Hill slope -0.304, Maximum measured 103.918 %, Maximum response 100 %, Minimum measured 7.141 %, P-gp concentration 2 uM, R squared 0.457, P-gp inhibitor Elacidar): > 50 µM | pEC50 (Zika virus; Zika virus, VeroE6/TMPRSS2): < 4.30 | EC90 (Zika virus; Zika virus, VeroE6/TMPRSS2, Maximum measured 155.311 %, Minimum measured 93.761 %, P-gp concentration 2 uM, P-gp inhibitor Elacidar): > 50 µM

c1ccc2c(CN3CCC(c4cscn4)CC3)c[nH]c2c1
EC90 (dengue virus type 2; Baseline response 0 %, Hill slope -0.247, Maximum measured 100.251 %, Maximum response 100 %, Minimum measured 62.836 %, P-gp concentration 2 uM, R squared 0.15, P-gp inhibitor Elacidar): > 10 µM | EC90 (dengue virus type 2; Baseline response 0 %, Hill slope -0.248, Maximum measured 160.986 %, Maximum response 100 %, Minimum measured 66.91 %, P-gp concentration 2 uM, R squared 0.115, P-gp inhibitor Elacidar): > 50 µM | pEC50 (dengue virus type 2; veroe6/tmprss2): < 4.30 | EC90 (Zika virus; Zika virus, VeroE6/TMPRSS2, Maximum measured 113.51 %, Minimum measured 55.055 %, P-gp concentration 2 uM, P-gp inhibitor Elacidar): > 10 µM | EC90 (Zika virus; Zika virus, VeroE6/TMPRSS2, Maximum measured 115.408 %, Minimum measured 68.286 %, P-gp concentration 2 uM, P-gp inhibitor Elacidar): > 50 µM | pEC50 (Zika virus; veroe6/tmprss2): < 4.30

O=C(Nc1cc(Cl)cc(S(=O)(=O)Nc2cccc(-c3nn[nH]n3)c2)c1)OCc1ccccc1
pEC50 (dengue virus type 2; Dengue virus, VeroE6/TMPRSS2): < 4.30 | EC90 (dengue virus type 2; Dengue virus, VeroE6/TMPRSS2, Maximum measured 125.288 %, Minimum measured 43.28 %, P-gp concentration 2 uM, P-gp inhibitor Elacidar): > 50 µM | pEC50 (Zika virus; Zika virus, VeroE6/TMPRSS2): < 4.78 | EC90 (Zika virus; Zika virus, VeroE6/TMPRSS2, Maximum measured 147.808 %, Minimum measured 131.825 %, P-gp concentration 2 uM, P-gp inhibitor Elacidar): > 16.7 µM

C=CC[C@H](Nc1cc(Cl)cc(NC(=O)OCc2ccccc2)c1)c1cccc(-c2nn[nH]n2)c1
pEC50 (dengue virus type 2; Dengue virus, VeroE6/TMPRSS2): 6.35 | EC90 (dengue virus type 2; Dengue virus, VeroE6/TMPRSS2): 4.92 µM | pEC50 (Zika virus; Zika virus, VeroE6/TMPRSS2): 4.85 | EC90 (Zika virus; Zika virus, VeroE6/TMPRSS2, Baseline response 0 %, Hill slope -24.201, Maximum measured 231.442 %, Maximum response 100 %, Minimum measured 2.044 %, P-gp concentration 2 uM, R squared 0.135, P-gp inhibitor Elacidar): 15.6 µM

NCCCc1ccnc(NC(=O)c2cc(Cl)cc(NC(=O)OCc3ccccc3)c2)c1
pEC50 (dengue virus type 2; Dengue virus, VeroE6/TMPRSS2): < 5.26 | EC90 (dengue virus type 2; Dengue virus, VeroE6/TMPRSS2, Baseline response 0 %, Hill slope -1.225, Maximum measured 82.874 %, Maximum response 60 %, Minimum measured 33.609 %, P-gp concentration 2 uM, R squared 0.331, P-gp inhibitor Elacidar): > 5.56 µM | pEC50 (Zika virus; Zika virus, VeroE6/TMPRSS2): 6.27 | EC90 (Zika virus; Zika virus, VeroE6/TMPRSS2): 3.24 µM

CNC(=O)[C@H](Nc1cc(Cl)cc(NC(=O)OCc2ccccc2)c1)c1cccc(-c2nn[nH]n2)c1
pEC50 (dengue virus type 2; Dengue virus, VeroE6/TMPRSS2): < 4.30 | EC90 (dengue virus type 2; Dengue virus, VeroE6/TMPRSS2, Baseline response 0 %, Hill slope -0.094, Maximum measured 132.889 %, Maximum response 100 %, Minimum measured 51.11 %, P-gp concentration 2 uM, R squared 0.041, P-gp inhibitor Elacidar): > 50 µM | pEC50 (Zika virus; Zika virus, VeroE6/TMPRSS2): < 4.30 | EC90 (Zika virus; Zika virus, VeroE6/TMPRSS2, Maximum measured 214.272 %, Minimum measured 122.906 %, P-gp concentration 2 uM, P-gp inhibitor Elacidar): > 50 µM

O=C(Nc1cc(Cl)cc(C(=O)Nc2cc(-c3nnn[nH]3)ccc2F)c1)OCc1ccccc1
pEC50 (dengue virus type 2; Dengue virus, VeroE6/TMPRSS2): < 4.30 | EC90 (dengue virus type 2; Dengue virus, VeroE6/TMPRSS2, Baseline response 0 %, Hill slope -0.699, Maximum measured 181.18 %, Maximum response 100 %, Minimum measured 75.606 %, P-gp concentration 2 uM, R squared 0.051, P-gp inhibitor Elacidar): > 50 µM | pEC50 (Zika virus; Zika virus, VeroE6/TMPRSS2): < 4.78 | EC90 (Zika virus; Zika virus, VeroE6/TMPRSS2, Maximum measured 136.099 %, Minimum measured 71.047 %, P-gp concentration 2 uM, P-gp inhibitor Elacidar): > 16.7 µM

O=C(Nc1cc(Cl)cc(N[C@H](C#CCO)c2ccc(-c3nn[nH]n3)cc2)c1)OCc1ccccc1
pEC50 (dengue virus type 2; Dengue virus, VeroE6/TMPRSS2): < 4.30 | EC90 (dengue virus type 2; Dengue virus, VeroE6/TMPRSS2, Baseline response 0 %, Hill slope -0.373, Maximum measured 106.055 %, Maximum response 100 %, Minimum measured 56.8 %, P-gp concentration 2 uM, R squared 0.212, P-gp inhibitor Elacidar): > 50 µM | pEC50 (Zika virus; Zika virus, VeroE6/TMPRSS2): < 4.78 | EC90 (Zika virus; Zika virus, VeroE6/TMPRSS2, Maximum measured 78.226 %, Minimum measured 29.543 %, P-gp concentration 2 uM, P-gp inhibitor Elacidar): > 16.7 µM
